Experiment: heat capacity at constant pressure per volume; xn = mol fraction of the nth substance listed
Conditions: 102.6 kPa, Liquid, DSC, Micro DSC III, x2 = 0.048

Brc1ccccc1 [bromobenzene] + CCCCCC[n+]1ccn(C)c1.O=S(=O)([N-]S(=O)(=O)C(F)(F)F)C(F)(F)F
Conditions	heat capacity [J/K/m3]
287.65 K	1529000
287.9 K	1529000
288.19 K	1529000
288.46 K	1529000
288.75 K	1530000
289.02 K	1531000
289.31 K	1531000
289.59 K	1531000
289.87 K	1532000
290.14 K	1533000
290.43 K	1533000
290.74 K	1533000
290.98 K	1533000
291.26 K	1534000
291.54 K	1535000
291.82 K	1537000
292.1 K	1539000
292.38 K	1541000
292.7 K	1546000
292.8 K	1536000
292.98 K	1534000
293.27 K	1533000
293.53 K	1533000
293.82 K	1533000
294.09 K	1533000
294.37 K	1533000
294.66 K	1533000
294.94 K	1533000
295.22 K	1534000
295.5 K	1534000
295.78 K	1534000
296.06 K	1534000
296.34 K	1534000
296.62 K	1534000
296.9 K	1534000
297.18 K	1534000
297.46 K	1535000
297.74 K	1535000
298.02 K	1536000
298.3 K	1536000
298.58 K	1536000
298.86 K	1536000
299.14 K	1536000
299.42 K	1537000
299.7 K	1537000
299.98 K	1537000
300.26 K	1537000
300.54 K	1538000
300.82 K	1538000
301.1 K	1538000
301.33 K	1538000
301.6 K	1538000
302.37 K	1539000
302.98 K	1539000
303.6 K	1539000
304.21 K	1540000
304.82 K	1540000
305.43 K	1541000
306.05 K	1541000
306.66 K	1541000
307.27 K	1542000
307.88 K	1542000
308.5 K	1542000
309.11 K	1543000
309.72 K	1543000
310.34 K	1544000
310.95 K	1544000
311.56 K	1545000
312.18 K	1545000
312.79 K	1545000
313.4 K	1546000
314.01 K	1546000
314.63 K	1547000
315.24 K	1547000
315.85 K	1548000
316.46 K	1548000
317.08 K	1548000
317.69 K	1549000
318.3 K	1549000
318.92 K	1550000
319.53 K	1550000
320.14 K	1551000
320.45 K	1551000
320.75 K	1551000
321.98 K	1552000
322.59 K	1552000
323.21 K	1553000
323.82 K	1553000
324.45 K	1553000
325.05 K	1554000
325.66 K	1554000
326.27 K	1555000
326.88 K	1555000
327.5 K	1556000
328.11 K	1556000
328.72 K	1557000
329.33 K	1557000
329.95 K	1558000
330.56 K	1558000
331.02 K	1559000
